Source: ChEMBL document CHEMBL1201862, “PubChem BioAssay data set” (2004)
Calls of active or inactive are those of the source.

Experiments:
[1] = molecular target: T1, Sphingosine 1-phosphate receptor 4 (Homo sapiens, UniProt O95977); assay: Fluorescence dose response cell-based high throughput screening assay for agonists of the Sphingosine 1-Phosphate Receptor 4 (S1P4). [Related pubchem assays: 1509 (Primary screen.), 1523 (Confirmation screen in triplicates.)]; assay type: functional
T1 sequence (O95977 whole entry): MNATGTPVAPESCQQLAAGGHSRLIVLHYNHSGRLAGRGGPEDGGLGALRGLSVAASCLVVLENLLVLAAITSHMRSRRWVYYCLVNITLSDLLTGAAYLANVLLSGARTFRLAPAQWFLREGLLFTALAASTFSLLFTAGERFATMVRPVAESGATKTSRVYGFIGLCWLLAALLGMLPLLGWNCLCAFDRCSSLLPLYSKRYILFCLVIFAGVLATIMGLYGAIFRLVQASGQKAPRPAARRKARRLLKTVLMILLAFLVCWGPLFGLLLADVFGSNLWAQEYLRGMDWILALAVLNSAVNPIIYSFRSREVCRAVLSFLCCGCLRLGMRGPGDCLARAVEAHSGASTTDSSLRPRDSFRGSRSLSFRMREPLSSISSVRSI

[2] = molecular target: Sphingosine 1-phosphate receptor 1 (Homo sapiens, UniProt P21453); assay: Fluorescence-based counterscreen assay for S1P4 agonists: Cell-based dose response high throughput screening assay to identify agonists of the Sphingosine 1-Phosphate Receptor 1 (S1P1). [Related pubchem assays (depositor defined):AID1509, AID1523, AID1801, AID463107, AID463118, AID463119, AID463122, AID463123, AID463129, AID463225, AID504400, AID504460]; assay type: functional
Sphingosine 1-phosphate receptor 1, sequence (P21453 whole entry): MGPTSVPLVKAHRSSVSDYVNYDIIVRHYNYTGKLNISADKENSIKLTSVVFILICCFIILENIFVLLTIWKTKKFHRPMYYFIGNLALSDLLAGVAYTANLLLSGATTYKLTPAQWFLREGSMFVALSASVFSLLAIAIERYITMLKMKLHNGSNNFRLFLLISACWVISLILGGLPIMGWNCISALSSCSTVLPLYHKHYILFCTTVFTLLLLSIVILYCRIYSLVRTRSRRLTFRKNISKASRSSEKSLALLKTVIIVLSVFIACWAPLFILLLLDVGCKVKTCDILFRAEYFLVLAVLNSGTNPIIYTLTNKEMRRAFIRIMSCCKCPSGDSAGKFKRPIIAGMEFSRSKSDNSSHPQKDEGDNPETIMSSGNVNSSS

[3] = molecular target: T2, Intestinal-type alkaline phosphatase (Homo sapiens, UniProt P09923); assay: Dose Response confirmation of uHTS hits from a small molecule inhibitors of human intestinal alkaline phosphatase via a luminescent assay. [Related pubchem assays (depositor defined):AID2544, AID2574]; assay type: functional
T2 sequence (P09923 whole entry): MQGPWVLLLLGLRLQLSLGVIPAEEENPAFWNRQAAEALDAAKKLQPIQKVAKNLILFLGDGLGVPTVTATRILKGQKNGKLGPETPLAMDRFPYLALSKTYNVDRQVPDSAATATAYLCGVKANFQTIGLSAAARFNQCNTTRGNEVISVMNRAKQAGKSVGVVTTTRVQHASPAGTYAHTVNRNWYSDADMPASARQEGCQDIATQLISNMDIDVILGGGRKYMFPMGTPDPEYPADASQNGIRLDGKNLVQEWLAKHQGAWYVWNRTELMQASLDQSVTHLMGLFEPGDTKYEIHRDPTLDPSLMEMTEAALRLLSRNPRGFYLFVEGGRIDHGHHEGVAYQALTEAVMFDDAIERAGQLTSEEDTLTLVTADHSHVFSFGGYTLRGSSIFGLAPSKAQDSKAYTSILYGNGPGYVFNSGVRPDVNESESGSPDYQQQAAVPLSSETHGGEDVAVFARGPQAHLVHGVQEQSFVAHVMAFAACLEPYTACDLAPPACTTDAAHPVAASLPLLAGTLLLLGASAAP

[4] = molecular target: T3, Intestinal-type alkaline phosphatase (Mus musculus, UniProt P24822); assay: PubChem AID 488875; assay type: functional
T3 sequence (P24822 whole entry): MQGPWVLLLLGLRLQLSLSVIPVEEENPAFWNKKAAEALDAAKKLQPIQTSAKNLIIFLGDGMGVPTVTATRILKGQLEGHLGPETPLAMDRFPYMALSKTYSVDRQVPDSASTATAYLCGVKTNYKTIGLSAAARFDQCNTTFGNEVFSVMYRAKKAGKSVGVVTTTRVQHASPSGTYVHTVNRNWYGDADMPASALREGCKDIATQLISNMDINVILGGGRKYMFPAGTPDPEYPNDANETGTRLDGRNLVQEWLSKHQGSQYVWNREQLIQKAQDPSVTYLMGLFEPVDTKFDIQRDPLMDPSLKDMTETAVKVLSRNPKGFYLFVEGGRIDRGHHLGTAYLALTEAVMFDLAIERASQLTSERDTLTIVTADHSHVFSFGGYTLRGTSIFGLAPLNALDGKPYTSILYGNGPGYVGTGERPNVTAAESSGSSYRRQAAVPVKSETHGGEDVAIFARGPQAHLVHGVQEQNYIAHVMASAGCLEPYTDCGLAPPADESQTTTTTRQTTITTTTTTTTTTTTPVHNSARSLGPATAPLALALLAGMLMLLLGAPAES

[5] = molecular target: T4, Alkaline phosphatase, tissue-nonspecific isozyme (Homo sapiens, UniProt P05186); assay: inhibition of tissue-nonspecific alkaline phosphatase – biochemical, dose response (AID 488882); assay type: functional
T4 sequence (P05186 whole entry): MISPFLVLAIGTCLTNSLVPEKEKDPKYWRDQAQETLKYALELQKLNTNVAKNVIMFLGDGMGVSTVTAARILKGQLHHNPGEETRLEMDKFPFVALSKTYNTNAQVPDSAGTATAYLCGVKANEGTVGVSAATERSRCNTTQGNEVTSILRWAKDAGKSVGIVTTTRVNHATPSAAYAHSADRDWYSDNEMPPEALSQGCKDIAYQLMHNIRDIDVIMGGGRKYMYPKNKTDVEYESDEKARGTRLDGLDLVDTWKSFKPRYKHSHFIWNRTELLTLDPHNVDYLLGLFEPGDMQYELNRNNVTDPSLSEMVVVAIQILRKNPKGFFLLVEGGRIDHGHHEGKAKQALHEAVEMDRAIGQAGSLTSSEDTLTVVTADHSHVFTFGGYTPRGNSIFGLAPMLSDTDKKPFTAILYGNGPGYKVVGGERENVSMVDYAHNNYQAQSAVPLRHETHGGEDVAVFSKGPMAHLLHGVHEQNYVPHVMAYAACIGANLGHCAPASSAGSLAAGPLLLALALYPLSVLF

[6] = molecular target: T2, Intestinal-type alkaline phosphatase; assay: inhibition of human intestinal alkaline phosphatase – biochemical, luminescent, uHTS hits, set 2, dose response (AID 488793); assay type: functional
Melanocortin receptor 4 = Melanocortin receptor 4 (Homo sapiens, UniProt P32245); assay: inhibitors of MC4R cAMP signaling – cell-based, TR-FRET, biased antagonists, dose response (AID 602298); assay type: functional;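 note: antagonist potency against agonist-stimulated cAMP production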
Melanocortin receptor 4, sequence (P32245 whole entry): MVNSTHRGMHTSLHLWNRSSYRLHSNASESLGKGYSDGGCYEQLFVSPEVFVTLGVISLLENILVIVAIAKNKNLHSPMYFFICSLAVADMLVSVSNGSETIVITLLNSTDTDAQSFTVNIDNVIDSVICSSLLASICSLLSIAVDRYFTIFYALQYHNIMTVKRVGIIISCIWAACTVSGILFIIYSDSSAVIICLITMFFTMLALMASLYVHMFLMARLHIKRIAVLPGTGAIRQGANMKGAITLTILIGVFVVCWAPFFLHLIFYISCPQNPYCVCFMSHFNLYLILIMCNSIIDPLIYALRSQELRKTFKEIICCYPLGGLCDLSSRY

Streptococcus = assay: GAS UMAA2166 growth inhibition – luminescence, BacTiterGlo, counter-screen for streptokinase expression inhibitor project, dose response (AID 1915); assay type: functional, organism-based;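 note: potency for reduction of bacterial viability or growth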
[7] = cAMP pathway inhibition in counterscreen cell line – TR-FRET cAMP detection, counter-screen for MC4R biased antagonist project, dose response (AID 602305); assay type: functional, cell-based;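 note: U2OS cells stimulated with forskolin near its EC80 as the cAMP inducer; potency is for inhibition of forskolin-stimulated cAMP signaling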
[8] = molecular target: T5, G-protein coupled receptor 55 (Homo sapiens, UniProt Q9Y2T6); assay: blockers of GPR55 signalling, imaged – imaging, image-based, counter-screen for GPR35 antagonist project, SAR follow-up (AID 2397); assay type: functional
T5 sequence (Q9Y2T6 whole entry): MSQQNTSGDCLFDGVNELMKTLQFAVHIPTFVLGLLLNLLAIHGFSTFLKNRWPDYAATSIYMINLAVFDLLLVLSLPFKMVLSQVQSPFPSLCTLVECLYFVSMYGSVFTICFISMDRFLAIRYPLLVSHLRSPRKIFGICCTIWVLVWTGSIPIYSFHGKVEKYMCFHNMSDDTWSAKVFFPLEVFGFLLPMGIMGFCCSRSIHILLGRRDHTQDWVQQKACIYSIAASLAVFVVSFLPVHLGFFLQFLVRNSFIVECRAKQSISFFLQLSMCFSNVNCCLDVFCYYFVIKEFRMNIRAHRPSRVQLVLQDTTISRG

[9] = system: Streptococcus sp. 'group A'; assay: Streptococcus pyogenes SK(-)GAS viability under kanamycin – luminescence, BacTiterGlo, confirmation, counter-screen for streptokinase expression inhibitor project, dose response (AID 1900); assay type: functional, organism-based
Streptokinase A = molecular target: T6, Streptokinase A (Streptococcus pyogenes serotype M1, UniProt P10520); assay: viability-normalized secreted streptokinase activity reduction – plasminogen activation absorbance, OD405, dose response (AID 1914); assay type: functional, Streptococcus pyogenes M1 GAS;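 note: secreted streptokinase activity via plasminogen activation per viability signal from cell pellet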
T6 sequence (P10520 whole entry): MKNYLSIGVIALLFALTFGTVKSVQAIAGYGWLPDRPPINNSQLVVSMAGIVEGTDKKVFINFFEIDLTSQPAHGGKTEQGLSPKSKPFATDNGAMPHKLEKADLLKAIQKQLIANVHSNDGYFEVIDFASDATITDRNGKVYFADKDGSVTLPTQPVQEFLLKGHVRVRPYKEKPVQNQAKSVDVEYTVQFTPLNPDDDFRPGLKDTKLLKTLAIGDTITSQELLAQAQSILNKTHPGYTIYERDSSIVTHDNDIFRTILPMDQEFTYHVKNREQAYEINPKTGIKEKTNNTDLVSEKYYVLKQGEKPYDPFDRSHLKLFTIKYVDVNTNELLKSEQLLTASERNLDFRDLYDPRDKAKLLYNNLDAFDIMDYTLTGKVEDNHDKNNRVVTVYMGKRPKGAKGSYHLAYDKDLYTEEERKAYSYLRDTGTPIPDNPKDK

[10] = molecular target: T2, Intestinal-type alkaline phosphatase; assay: human intestinal alkaline phosphatase activators, dose response, biochemical, luminescence, uHTS hits (AID 463120); assay type: functional
[11] = molecular target: T4, Alkaline phosphatase, tissue-nonspecific isozyme; assay: activation of tissue-nonspecific alkaline phosphatase – biochemical, TNAP isozyme, human IAP uHTS hits, selectivity assay for human IAP activator project, dose response (AID 488886); assay type: functional;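 note: potency of compounds raising TNAP activity as a selectivity check on IAP activators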
[12] = molecular target: T2, Intestinal-type alkaline phosphatase; assay: activation of human intestinal alkaline phosphatase – biochemical, luminescent, uHTS hits, set 2, dose response (AID 488817); assay type: functional;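 note: potency of activators that raise enzyme activity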
[13] = molecular target: T3, Intestinal-type alkaline phosphatase; assay: PubChem AID 488874; assay type: functional
Cannabinoid receptor 2 [14] = molecular target: T7, Cannabinoid receptor 2 (Homo sapiens, UniProt P34972); assay: SAR analysis of agonists of the Cannabinoid Receptor 2 using an Image-Based Assay - Set 2. [Related pubchem assays (depositor defined):AID1961, AID1965]; assay type: functional
T7 sequence (P34972 whole entry): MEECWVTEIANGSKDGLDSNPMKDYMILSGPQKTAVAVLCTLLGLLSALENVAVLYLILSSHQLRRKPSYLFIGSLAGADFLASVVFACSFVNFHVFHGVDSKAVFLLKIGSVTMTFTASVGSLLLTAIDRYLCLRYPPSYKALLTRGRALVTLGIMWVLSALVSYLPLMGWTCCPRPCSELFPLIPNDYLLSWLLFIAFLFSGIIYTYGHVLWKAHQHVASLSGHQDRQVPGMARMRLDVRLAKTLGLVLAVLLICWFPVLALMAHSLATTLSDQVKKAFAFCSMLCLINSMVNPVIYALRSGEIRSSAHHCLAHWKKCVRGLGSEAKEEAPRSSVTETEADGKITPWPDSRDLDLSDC

Cannabinoid receptor 2 [15] = molecular target: T7, Cannabinoid receptor 2; assay: SAR analysis of antagonists of the Cannabinoid Receptor 2 using an Image-Based Assay - Set 2. [Related pubchem assays (depositor defined):AID1961, AID1965]; assay type: functional
[16] = molecular target: T5, G-protein coupled receptor 55; assay: selective activators of receptor GPR55 – imaging, U2OS cells, beta-arrestin-GFP redistribution, primary screen (AID 1961); assay type: functional
[17] = molecular target: T5, G-protein coupled receptor 55; assay: SAR analysis of selective Agonists of GPR55 using an Image-Based Assay. [Related pubchem assays (depositor defined):AID1961, AID1965]; assay type: functional
[18] = molecular target: Dual specificity protein phosphatase 3 (Homo sapiens, UniProt P51452); assay: SAR VHR1 Fluorescent Assay for In Vitro dose response studies Set 2. [Related pubchem assays (depositor defined):AID1654, AID1661, AID1878]; assay type: functional
Dual specificity protein phosphatase 3, sequence (P51452 whole entry): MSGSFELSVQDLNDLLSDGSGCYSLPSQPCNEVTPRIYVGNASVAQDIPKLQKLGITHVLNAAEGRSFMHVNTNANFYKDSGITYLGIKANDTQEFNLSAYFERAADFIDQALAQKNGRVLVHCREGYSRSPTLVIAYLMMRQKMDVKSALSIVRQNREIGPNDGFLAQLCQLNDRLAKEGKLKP

Cannabinoid receptor 1 = Cannabinoid receptor 1 (Homo sapiens, UniProt P21554); assay: SAR analysis of antagonists of the Cannabinoid Receptor 1 using an Image-Based Assay. [Related pubchem assays (depositor defined):AID1961, AID1965]; assay type: functional
Cannabinoid receptor 1, sequence (P21554 whole entry): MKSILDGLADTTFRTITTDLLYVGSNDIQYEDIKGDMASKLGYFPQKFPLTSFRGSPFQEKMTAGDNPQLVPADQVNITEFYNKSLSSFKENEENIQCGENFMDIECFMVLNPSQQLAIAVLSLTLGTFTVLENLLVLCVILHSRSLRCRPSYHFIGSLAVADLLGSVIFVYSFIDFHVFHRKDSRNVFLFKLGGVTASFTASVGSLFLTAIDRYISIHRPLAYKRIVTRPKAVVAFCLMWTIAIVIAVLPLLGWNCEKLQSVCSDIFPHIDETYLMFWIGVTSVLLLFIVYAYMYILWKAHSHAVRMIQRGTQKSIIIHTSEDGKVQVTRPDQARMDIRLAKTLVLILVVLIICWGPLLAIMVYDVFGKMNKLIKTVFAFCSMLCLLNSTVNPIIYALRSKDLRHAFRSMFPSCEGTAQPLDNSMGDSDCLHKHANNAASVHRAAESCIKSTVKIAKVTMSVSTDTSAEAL

[19] = molecular target: T8, Tyrosine-protein phosphatase non-receptor type 7 (Homo sapiens, UniProt P35236); assay: SAR analysis of chemical inhibitors of HePTP using a Fluorescent assay - Set 2. [Related pubchem assays (depositor defined):AID1059, AID1077, AID1661, AID2085, AID521]; assay type: functional
T8 sequence (P35236 whole entry): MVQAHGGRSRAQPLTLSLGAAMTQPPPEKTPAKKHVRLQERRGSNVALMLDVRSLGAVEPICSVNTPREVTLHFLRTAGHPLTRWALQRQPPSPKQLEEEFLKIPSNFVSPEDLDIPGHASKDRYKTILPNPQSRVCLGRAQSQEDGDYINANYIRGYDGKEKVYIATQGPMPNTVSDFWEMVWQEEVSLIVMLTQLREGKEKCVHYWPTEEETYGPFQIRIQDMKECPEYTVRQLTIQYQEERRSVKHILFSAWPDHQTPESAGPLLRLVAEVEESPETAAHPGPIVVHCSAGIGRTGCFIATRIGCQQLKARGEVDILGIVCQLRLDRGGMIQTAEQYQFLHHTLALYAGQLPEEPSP

[20] = molecular target: Nuclear receptor ROR-gamma (Homo sapiens, UniProt P51449); assay: LXR, FXR and VP16 reporter activity, cell-based, luciferase reporter, ROR modulator project, late-stage follow-up, panel member RORG (AID 2117)
Nuclear receptor ROR-gamma, sequence (P51449 whole entry, the tested form may be a part): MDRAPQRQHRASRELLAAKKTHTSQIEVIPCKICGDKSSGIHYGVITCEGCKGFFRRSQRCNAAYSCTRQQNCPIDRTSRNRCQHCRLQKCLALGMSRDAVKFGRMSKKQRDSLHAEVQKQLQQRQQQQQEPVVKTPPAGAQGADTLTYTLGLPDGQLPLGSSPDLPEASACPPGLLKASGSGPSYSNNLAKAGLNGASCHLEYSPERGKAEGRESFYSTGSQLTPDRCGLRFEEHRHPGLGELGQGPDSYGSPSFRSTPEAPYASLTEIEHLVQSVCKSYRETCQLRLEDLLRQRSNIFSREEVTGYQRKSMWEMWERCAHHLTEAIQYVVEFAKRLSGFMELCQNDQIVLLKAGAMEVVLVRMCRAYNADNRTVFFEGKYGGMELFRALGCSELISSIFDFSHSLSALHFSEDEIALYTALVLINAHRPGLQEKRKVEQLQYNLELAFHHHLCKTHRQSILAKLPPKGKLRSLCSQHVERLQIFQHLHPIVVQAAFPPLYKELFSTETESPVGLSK

[21] = Fluorescence-based cell-based high throughput dose response assay for inhibitors of the interaction of nucleotide-binding oligomerization domain containing 2 (NOD2) and the receptor-interacting serine-threonine kinase 2 (RIPK2).; assay type: functional; settings: Homo sapiens
Beta Lactamase = Beta Lactamase (Pseudomonas aeruginosa, UniProt Q932Y6); assay: BLA reporter interference, concentration series – BLA reporter cells, FRET fluorescence, artefact control for NOD2-RIPK2 interaction inhibitor project, dose response (AID 651552); assay type: functional, cell-based
Beta Lactamase, sequence (Q932Y6 whole entry): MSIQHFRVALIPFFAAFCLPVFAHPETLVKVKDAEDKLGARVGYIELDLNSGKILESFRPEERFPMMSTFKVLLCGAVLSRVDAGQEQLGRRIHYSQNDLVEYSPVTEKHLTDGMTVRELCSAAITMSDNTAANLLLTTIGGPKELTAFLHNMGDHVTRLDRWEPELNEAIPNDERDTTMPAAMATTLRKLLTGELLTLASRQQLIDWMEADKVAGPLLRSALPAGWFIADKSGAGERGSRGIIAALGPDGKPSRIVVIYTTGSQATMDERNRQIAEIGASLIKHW

[22] = molecular target: Nuclear receptor ROR-alpha (Homo sapiens, UniProt P35398); assay: LXR, FXR and VP16 reporter activity, cell-based, luciferase reporter, ROR modulator project, late-stage follow-up, panel member RORA (AID 2117)
Nuclear receptor ROR-alpha, sequence (P35398 whole entry): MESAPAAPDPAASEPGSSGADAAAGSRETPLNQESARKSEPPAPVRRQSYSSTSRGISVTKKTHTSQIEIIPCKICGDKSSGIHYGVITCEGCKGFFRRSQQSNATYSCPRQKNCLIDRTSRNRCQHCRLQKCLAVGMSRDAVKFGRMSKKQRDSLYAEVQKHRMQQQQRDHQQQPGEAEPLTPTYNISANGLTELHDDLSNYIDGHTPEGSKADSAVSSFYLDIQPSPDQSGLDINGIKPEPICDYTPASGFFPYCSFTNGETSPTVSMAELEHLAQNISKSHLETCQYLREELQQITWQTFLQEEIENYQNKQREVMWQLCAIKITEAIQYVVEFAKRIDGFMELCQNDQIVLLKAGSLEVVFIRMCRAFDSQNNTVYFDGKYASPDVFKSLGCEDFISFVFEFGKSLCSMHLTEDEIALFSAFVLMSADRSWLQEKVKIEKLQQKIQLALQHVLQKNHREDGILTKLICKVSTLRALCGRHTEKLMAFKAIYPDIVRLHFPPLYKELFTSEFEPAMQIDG

Cytochrome P450 2D6 = Cytochrome P450 2D6 (Homo sapiens, UniProt P10635);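 note: CYP2D6 member of a cytochrome P450 panel assay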

In the case of O=C(NCc1ccccc1)c1nc[nH]c1C(=O)N[C@@H](Cc1ccccc1)C(=O)OCc1ccccc1, the EC50 [1] is reported as 90.2 µM (not active) and the EC50 [2] is reported as > 49.8 µM (inactive).
For O=C1C2C3C=CC(C3)C2C(=O)N1c1n[nH]c(-c2cccnc2)n1 (stereo not drawn), the IC50 [3] was 5.18 µM (active), the EC50 [4] was > 100 µM (inactive) and the IC50 [5] was > 100 µM (inactive). For the same molecule, the IC50 [6] was 7.69 µM (active).
For Cc1nc(N2CCC(C)CC2)c2c(C)c(C(=O)Nc3ccccc3C(F)(F)F)sc2n1, the IC50 (Melanocortin receptor 4) was > 64.6 µM (inactive), the EC50 (Streptococcus) was 41.5 µM (active) and the IC50 [7] was > 64.6 µM (inactive). For the same molecule, the IC50 [8] was 6.95 µM (active), the EC50 [9] was 3.69 µM (active) and the EC50 (Streptokinase A) was 6.34 µM (active).
In the case of Cc1cccc(-n2ncc3c(NNC(=O)c4ccco4)ncnc32)c1, the EC50 [10] is reported as 7.19 µM (active), the EC50 [11] is reported as 7.58 µM (active) and the EC50 [12] is reported as 7.33 µM (active). For the same molecule, the IC50 [13] was 66.9 µM (active).
For COc1ccccc1/C=C/C(=O)NC(=S)Nc1ccc(S(=O)(=O)N(C)c2ccccc2)cc1, the EC50 (Cannabinoid receptor 2 [14]) was > 32 µM (inactive), the IC50 (Cannabinoid receptor 2 [15]) was > 32 µM (inactive) and the EC50 [16] was < 0.5 µM (active). The EC50 [17] was 0.114 µM (active), the IC50 [18] was > 100 µM (inactive) and the IC50 (Cannabinoid receptor 1) was > 32 µM (inactive). The IC50 [19] was > 100 µM (inactive).
With O=S(=O)(Nc1ccc(C(O)(C(F)(F)F)C(F)(F)F)cc1)c1ccc(Cl)c2nonc12 the IC50 [20] was 2.08 µM (active), the IC50 [21] was 14.3 µM (inactive) and the IC50 (Beta Lactamase) was 41.6 µM (inactive). The IC50 [22] was 7.28 µM (active).
With CC1Cc2ccccc2N1C(=O)CN1C(=O)COc2ccccc21 (stereo not drawn) the AC50 (Cytochrome P450 2D6) was “inconclusive”.
